Point of comparison: Nc1nc(Br)cn2c(Br)cnc12, melting point 246 °C. Against it:
- Cc1cc(N(C)Cc2ccc(-c3ccc(C(F)(F)F)cc3)nc2)ccc1OCC(=O)O — lower, 199 °C
- COCC1=C(C(=O)OC)C(c2ccccc2Cl)C(C(=O)OC)=C(COC)N1 — lower, 137 to 138 °C
- Cc1ccccc1-n1ccc(=O)c(-c2ccnn2-c2ccccc2)n1 — lower, 120 to 121 °C
- N#Cc1ccccc1N1CCc2ccccc21 — lower, 94 to 96.5 °C
- COC1CCCC2=C(O)C3=C(C(=O)c4ccc(C(C)=O)cc4C3)C(O)C21 (configuration not stated) — lower, 223 to 226 °C
- Nc1cc(Br)nc(Br)c1[N+](=O)[O-] — lower, 140 °C
- COC(=O)C1=C(O)c2c(c3ccccc3n2C)S(=O)(=O)N1C — lower, 189 to 190 °C
- O=C(c1cc(NS(=O)(=O)c2ccccc2)ccn1)N(O)Cc1ccccc1 — lower, 175 to 180 °C
- O=C(C=Cc1ccc(N2CCOCC2)cc1)c1ccc2c(c1)CCCC2 — lower, 138 to 140 °C
- COc1cccc2oc(-c3ccc(Cl)cc3)cc(=O)c12 — lower, 171 to 172 °C
- CCCCS(=O)(=O)N(C)CCN1CC(c2ccc3c(c2)OCO3)C(C(=O)O)C1c1ccc(OC)cc1 (configuration not stated) — lower, 64 to 66 °C
- Nc1ccc(C(=O)Nc2ccc3oc4c(c3c2)CCCC4)cc1 — lower, 207 to 208 °C
- CCOC(=O)C(C)=Cc1cn(-c2cccnc2)c2ccccc12 — lower, 97 to 99 °C
- O=C1c2ccccc2CNc2nc3ccc(Br)cc3c(Cl)c21 — higher, 260 to 264 °C
- c1ccc2c(c1)Cc1ccccc1N2 — lower, 170 to 171 °C
- CNC(=S)Nc1ccc(C2=NNC(=O)CC2C)cc1 (configuration not stated) — lower, 213 °C
- CN1CCc2cc(CO)sc2C(c2ccccc2)C1 (configuration not stated) — lower, 112 °C
- CN(C(CCN1C(=O)c2ccccc2C1=O)C(=O)NO)S(=O)(=O)c1ccc(Oc2ccc(F)cc2)cc1 (configuration not stated) — lower, 100 to 101 °C
- CCn1c(CC(=O)O)ccc1C(=O)c1ccc(Cl)cc1 — lower, 149 to 153 °C
- COc1ccc(N(C)C(=O)CN(C(=O)CN2C(=O)c3ccccc3C2=O)c2ccccc2)cc1 — lower, 162 °C
- CC(C)N(CCOc1cccc2nc(Cl)c3ccccc3c12)C(C)C — lower, 88 to 91 °C
- CCOCN1C(C)=C(C(=O)OC)C(c2cccc([N+](=O)[O-])c2)C(C(=O)OCCBr)=C1C (configuration not stated) — lower, 72.5 to 74 °C
- CC(C)(C)OC(=O)c1ccc(C=Cc2cnc3nc(N)nc(N)c3c2)cc1 — higher, > 350 °C
- CCCN(CCC)C1CCC2=C(CCCC2=NO)C1 (configuration not stated) — lower, 99 to 102 °C
- COc1ccccc1N1CCN(CCCNC(=O)c2cccc3c(=O)c(O)c(-c4ccccc4)oc23)CC1 — lower, 196 to 199 °C
- Clc1cc2c(cc1Cl)Nc1cscc1CN2 — lower, 195 to 197 °C
- CCOC(=O)c1cccc(NC(=O)c2sc(NC(=N)N)nc2C)c1 — lower, 149 to 152 °C
- CC1(C)[C@@H]2CC3[C@H](C(=O)NCC(N)=O)[C@@]3(C)C[C@@H]21 (some centres not stated) — lower, 169 to 170 °C
- Cc1cnc2c(NC(=O)c3c(Cl)cccc3Cl)cccc2c1-n1ccnc1 — lower, 224 to 228 °C
- Fc1cc(Cl)ccc1-n1nc2c(c1Cl)CCCC2 — lower, 82 to 85 °C
- C=CCN(c1nc(N2CCN(C(=O)n3ccnc3)CC2)nc(N(CC=C)C2CCCCC2)n1)C1CCCCC1 — lower, 132 to 135 °C
- C[C@H](Nc1nc(C#N)nc(Cl)c1-c1c(F)cc(F)cc1F)C(F)(F)F — lower, 134 to 136 °C
- O=C(c1cc(C(F)(F)F)cc(C(F)(F)F)c1)N1CCC(Nc2nc3cccnc3n2Cc2ccco2)CC1Cc1ccccc1 (configuration not stated) — lower, 109 °C
- NS(=O)(=O)c1ccc(Br)c(Br)c1 — lower, 169 to 171 °C
- CNC(=O)C(=NOC)c1cccc(Cl)c1COc1ccc(Sc2ccc(C)cc2)cn1 — lower, 100 to 102 °C
- Clc1ccc2ccc(COc3ccc4c(c3)C(SCCc3nnn[nH]3)c3ccccc3CO4)nc2c1 (configuration not stated) — lower, 142 to 147 °C
- Fc1ccccc1Cn1nc(-c2nc(C(F)(F)F)cc(C(F)(F)F)n2)c2cccnc21 — lower, 109 °C
- CC(C)n1c(=O)nc(-c2ccc3c(c2)OCO3)c2cc3c(cc21)OCO3 — lower, 125 to 127 °C
- COc1ccc(CNn2nnc3c(-c4ccco4)ncnc32)cc1 — lower, 166 to 168 °C
- Cc1c2ccnc(Cl)c2cc2c1[nH]c1ccncc12 — higher, > 263 °C
- CN1CCN(c2ccc(-c3ccc4c(c3)C=C(C(=O)Nc3ccc(CN(C)C5CCOCC5)cc3)CCO4)cc2)CC1 — lower, 220 to 221 °C
- Cc1nc2c(OCc3ccccc3)cc(Br)cc2n1COCC[Si](C)(C)C — lower, 94 to 95 °C
- CCCc1sc(-c2ccccc2)nc1OC(=O)Nc1ccccc1 — lower, 104 to 105 °C
- C[C@H]1CCCC[C@H]1Nc1c(C(N)=O)cnn2cccc12 — lower, 155 °C
- COC(=O)CC(NC1CC1)=C(C(=O)OC)C(=O)C(F)(F)C(F)(F)F — lower, 32 to 34 °C
- CC1N=C(c2ccccc2Cl)c2c(ccc(NC(=O)NC3CCC(O)CC3)c2Br)N(C)C1=O (configuration not stated) — lower, 226 to 227 °C
- N=C(Nc1ccc(Cl)cc1)Nc1ncccc1OCc1ccccc1Cl — lower, 162 to 163 °C
- CCCCCC(CNC(=O)Nc1c(C(C)C)cccc1C(C)C)c1cccc2c1OCO2 (configuration not stated) — lower, 161 to 163 °C
- Cc1ccccc1N1CCN(CC(O)c2ccc(N3CCCNC3=O)cc2)CC1 (configuration not stated) — lower, 234 to 235 °C
- C[C@H]([C@](O)(Cn1cncn1)c1ccc(F)cc1F)S(=O)(=O)N1CCN(c2ncccn2)CC1 — lower, 101 to 108 °C
- O=C(O)CCc1ccc(OCc2ccccc2)cc1 — lower, 123 to 124 °C
- Cc1ccccc1S(=O)(=O)NC(=O)Nc1cc(C)c(S(=O)(=O)C[N+](=O)[O-])c(C)c1 — lower, 194 to 196 °C
- COc1ccc(-c2cc3ncccc3c(Cl)n2)cc1 — lower, 126 to 127 °C
- O=C(O)C=C1SC(=Nc2ccc(Cl)c(Cl)c2)N(c2ccc(Cl)c(Cl)c2)C1=O — lower, 221 to 222 °C
- c1cc2c(cc1NC1=NCCN1)CCC2 — lower, 41 to 42 °C
- CC(C)C(=O)C(C#N)=C(O)c1ccc(C(F)(F)F)cc1[N+](=O)[O-] — lower, 83 to 85 °C
- CC(C)N1CCN(c2ccc(-c3[nH]nc4c3C(=O)c3c(NC(=O)NN5CCN(C)CC5)cccc3-4)cc2)CC1 — higher, 272 °C
- CC(=O)N1c2ccccc2CCc2ccc(C(=O)O)cc21 — lower, 189 to 190 °C
- CNC1CC=C(c2c[nH]c3ccc([N+](=O)[O-])cc23)CC1 (configuration not stated) — lower, 208 to 210 °C
- COc1cc2c(cc1OC)-c1c(C#N)sc(=S)n1CC2 — lower, 228 °C
- CS(=O)(=O)N1CCN(Cc2ccccc2)CC1 — lower, 115 to 116 °C
- Cc1ccc(S(=O)(=O)OC[C@H]2CC[C@@H](COS(=O)(=O)c3ccc(C)cc3)O2)cc1 — lower, 125 to 126 °C
- COC(=O)c1nc(-c2ccc(Cl)c(OC)c2F)nc(N)c1C(C)F (configuration not stated) — lower, 150 to 152 °C
- O=c1c(-c2cc(=O)c3c(O)cccc3o2)cn(-c2ccccc2)c2ccccc12 — higher, > 300 °C
- Cc1nc(CC2(C)CCN(c3ccc(F)cc3)CC2)nc(C(=O)NCC(=O)O)c1O — lower, 140 to 141 °C
- COC(=O)c1ccc(-c2oc3cc(NS(C)(=O)=O)ccc3c(=O)c2OS(C)(=O)=O)cc1 — higher, 250 °C
- O=C1NC(=O)C2(N1)C(=O)N(Cc1ccc(Cl)c(Cl)c1)c1c(F)cccc12 (single isomer, unassigned; (+)) — the same, 246 °C
- Nn1c(-c2ccccc2Cl)nnc1-c1ccccc1Cl — lower, 168 to 170 °C
- Cc1nc(-c2ccc(C(C)(C)C)cc2)sc1C(=O)O — lower, 190 to 193 °C
- Cc1ccc2[nH]c(CO)cc2c1C — lower, 159 °C
- ClC(Cl)=CCOc1cc(Cl)c(OCC=Cc2ccccc2)c(Cl)c1 — lower, 51.3 °C
- NC(=O)C1CN(Cc2ccccc2)CCN1 (configuration not stated) — lower, 168 °C
- Nc1c(OCCCNCc2ccccc2)cccc1[N+](=O)[O-] — lower, 66 to 67 °C
- CC(=O)OC1CSC(Oc2ccc(-c3ccc(F)nc3)nc2Cl)C(OC(C)=O)C1OC(C)=O (configuration not stated) — lower, 226 °C
- COC(=O)c1ccccc1S(=O)(=O)NC(=O)Nc1ncc(C)n(C)c1=O — lower, 192 to 193 °C
- Clc1ccc(C(CCC2CCCC2)Cn2cncn2)c(Cl)c1 (configuration not stated) — lower, 71 °C
- COc1ccc2c(c1)CCC1=C2CCC2(C(C)C)C(=O)CCC12 (configuration not stated) — lower, 85 to 100 °C
- COc1ccc2c(Cc3c(Cl)cncc3Cl)nncc2c1C=Cc1ccccc1 — lower, 180 to 182 °C
- COc1cc2ncnc(N3CCc4cc([N+](=O)[O-])c(Cl)cc43)c2cc1OC — higher, 276 to 278 °C
- COCCN1CCN(CC2CCN(c3ccc(Cl)cc3)C2=O)CC1 (configuration not stated) — lower, 103 to 105 °C
- CCCCCCCCCCc1c(C(=O)O)sc2c1sc1c(CCCCCCCCCC)c(C(=O)O)sc12 — higher, 280 °C
- CC(=O)N(C1=C(NC2CC2)C(=O)c2c(cnn2C)C1=O)C1CC1 — lower, 75 to 78 °C
- CNc1cn(-c2cccnc2)nc1Cl — lower, 104 to 106 °C
- CC(C)Nc1ccc(-c2ncc(C(F)(F)F)cc2Cl)cc1N — lower, 116 to 117 °C
- COc1cc(C(=O)CCCc2ccccc2)cc([N+](=O)[O-])c1O — lower, 120 to 121 °C
- Nc1ncnc2c1ncn2C1CC(O)(C(=O)c2cccc(C(F)(F)F)c2)C(COC(=O)c2cccc(C(F)(F)F)c2)O1 (configuration not stated) — lower, 160 °C
- CN1CCN(c2nn(S(=O)(=O)c3ccccc3)c3ccc(Br)cc23)CC1 — lower, 135 to 137 °C
- CCCCCc1ccc(-c2ncc([C@H]3CC[C@H](CCC)CC3)cn2)cc1 — lower, 93.5 °C
- Cn1nc(Nc2cc(-c3ccc(F)c(-c4c(C(N)=O)sc5c4C(O)C(C)(C)C5)c3)nn(C)c2=O)cc1CN1CCC1 (configuration not stated) — lower, 110 to 111 °C
- COc1ccc(C2=CCCc3cc(OC)ccc32)cc1 — lower, 100 to 102 °C
- COc1ccc(C(O)(c2ccc3c(c2)c(-c2cccc(Cl)c2)nc2nnnn23)c2cncn2C)cc1 (configuration not stated) — lower, 200 °C
- CCOC(=O)COc1ccc(NC(=O)c2ccc(C(C)(C)C)cc2)cc1 — lower, 119 to 122 °C
- Cc1ccc(-c2[nH]c(-c3ccccc3)nc2C(=O)Nc2nc(-c3ccccc3)cs2)cc1 — higher, 274 to 276 °C
- O=C1c2ccccc2C(=O)c2c1oc1ccc3cc(O)ccc3c21 — higher, 318 °C
- O=S(=O)(c1ccc(O)c(-c2ccccc2)c1)c1ccc(O)c(-c2ccccc2)c1 — lower, 243 to 245 °C
- COc1cc2nc(N)nc(-c3ccccc3Br)c2cc1OC — lower, 241 to 243 °C

Reference: a melting point compilation (Tetko et al.; mined from patent text by program, amines drawn as free bases though some values may be those of a salt)
